This is an account of results in US20260035722A1, “METHOD FOR LIQUEFYING AGAROSE AND PRODUCING NEOAGAROTETRAOSE/NEOAGAROHEXAOSE BY USING THERMOSTABLE GH16B BETA-AGARASE DERIVED FROM NOVEL AGAR-DEGRADING BACTERIUM” (Kyungpook National University Industry-Academic Cooperation …, priority 2022, published 2026).

As usually defined, the kcat is the number of substrate molecules converted per active site and unit of time at saturation. One may read the Km as the concentration of substrate that gives half-maximal velocity.

Data set [1] has as its system GH16B β-agarase. As to the kind of experiment: Agarase activity assay (DNS method): effects of metal ions, reducing agent and EDTA on enzymatic activity. Type of data set: biochemical, Cellvibrio sp. KY-GH-1. Particulars: for Relative activity (%): relative to untreated control, mean ± SD (n = 3); for Effect on the enzymatic activity: 0.5 to 2.5 mM. The protocol:
(§1) Quantitative analysis of GH16B β-agarase activity was performed using the DNS method, which detects reducing sugars released from agarose. The enzyme solution (100 μL) was mixed with an equal volume of 0.8% melted agarose in an appropriate buffer. The content of reducing sugars formed in the reaction mixture was determined colorimetrically using DNS reagent after 30 min of incubation at 50° C. The amount of enzyme that produced reducing power equivalent to 1 μmol of D-galactose per min was defined as one unit of enzymatic activity.
(§2) The optimal temperature was determined using 50 mM Tris-HCl buffer (pH 7.0) for 30 min over a temperature range of 25 to 70° C. The optimal pH was determined using 50 mM Mollvaine buffer ([…] to 7.5) and 50 mM Tris-HCl buffer (pH 7.5 to 10.0). For temperature and pH stability assays, aliquots of enzyme were preincubated at the indicated temperature and pH for the indicated time, and then the relative enzyme activity was measured under standard assay conditions (30 min, 50° C., 50 mM Tris-HCl buffer, pH 7.0). The kinetic parameters of GH16B β-agarase were determined by adding a known amount of the enzyme solution to the agarose substrate solution (1 to 5 mg/mL agarose in 50 mM Tris-HCl, pH 7.0). The Lineweaver-Burk equation, generated via GraphPad Prism 8 statistical package (GraphPad Software Inc., USA), was used to calculate Km and Vmax values. To examine the effects of metal ions, reducing agent, and chelator EDTA on enzymatic activity, various metal ions (CaCl2, CuSO4, KCl, MgCl2, MnCl2, MnSO4, and NaCl), TCEP, or EDTA were used at the indicated concentrations under standard analytical conditions.

The nature of data set [2]: Kinetic parameters of GH16B β-agarase (Lineweaver-Burk, DNS method). It counts as biochemical. The conditions noted are these: for agarose. The protocol: as §1, §2
Data set [3] is described as follows: Substrate hydrolysis and agarose liquefaction analysed by TLC and MALDI-TOF/TOF MS. It counts as biochemical. The protocol: TLC analysis was performed for GH16B β-agarase-catalyzed hydrolysates of agarose, NAOS, or AOS on Silica Gel 60 aluminum plates, which were developed with n-butanol-ethanol-H2O [3:2:2 (v/v)]. To detect oligosaccharides, a visualization solution (containing 0.2% (w/v) naphthoresorcinol, 10% (v/v) H2SO4, ethanol) was sprayed, followed by heating at 80° C. NA2 and the NAOS standard mixture containing NA2-NA18 were used as standards.
MALDI-TOF/TOF MS was performed according to previously described methods to analyze the hydrolytic products of agarose or AOS through enzymatic reactions. The assisted laser desorption/ionization tandem time-of-flight mass spectrometry (MALDI-TOF/TOF MS) was performed in the positive ion reflectron mode using the ultraflextreme system (Bruker Daltonics). The purified reaction product was dissolved in water, 1 μL of the dissolved reaction product was spotted onto a stainless steel target plate, and 0.3 μL of 0.01 M NaCl and […] of 50 mg/mL 2,5-dihydroxybenzoic acid in 50% acetonitrile were added thereto. The spots were rapidly dried under vacuum for homogeneous crystallization. Each acquired spectrum represents the combined signal from 800 laser shots at each of 3 random locations on the spot, totaling 2,400 laser shots, using a 1-kHz laser. The laser attenuator offset and range were set at 68% and 15%, respectively, with the laser focus set at 50%. Mass spectra were recorded over an m/z range of 0 to 5,100. To obtain high-resolution data, the detector sampling rate was set at a maximum of 4.00 giga samples/s, and the detector gain was set at 4.0×. Mass spectra were externally calibrated using maltooligosaccharides isolated from commercial beer. A ladder of hexose polymers, spaced 1 hexose unit (162.053 Da) apart, provided comprehensive coverage of the entire mass acquisition range, enabling the accurate mass calibration of the MALDI-TOF/TOF MS just prior to the sample analysis. Raw MS data were processed with FlexAnalysis software (version 3.3; Bruker Daltonics). […]

Data set [4] can be described thus: Zymogram for agarase activity on LB agarose plates (Lugol's iodine). It counts as cell-based, E. coli BL21 (DE3) pLysS transformants. The conditions noted are these: among transformants expressing GH16A, GH16B, GH16C, GH16D β-agarases. As for the experimental part: E. coli BL21 (DE3) pLysS transformants harboring the recombinant pET-30a plasmid containing GH16A, GH16B, GH16C, or GH16D were spotted onto LB agarose plates (containing 1.5% agarose ((Invitrogen, Life technology, Grand Island, NY, USA), 50 μg/mL chloramphenicol, 25 μg/mL kanamycin, and 0.1 mM IPTG) and then incubated for 3 days at 37° C. The plates were stained with Lugol's at room iodine solution temperature.

The procedure of data set [5]:
as §1
as §2, with “The optimal temperature was determined using 50 mM Tris-HCl buffer (pH 7.0) for 30 min over a temperature range of 25 to 70° C.” left out

On to `O=C(O)CCP(CCC(=O)O)CCC(=O)O` [TCEP, tris(2-carboxyethyl)phosphine, reference compound], for which the entries for the “Relative activity (%)” value in data set [1] (0.5 mM metal ion/chemical), in data set [1] (1.0 mM metal ion/chemical) and in data set [1] (2.5 mM metal ion/chemical) were 100 (±1.55) %, 109 (±2.85) % and 117 (±6.00) %, respectively. The “Enhancement of enzymatic activity” value in data set [1] (5 to 15 mM TCEP, dose-dependent, 0.8 μg/mL enzyme, 0.4% agarose, pH 7.0, 50° C., 30 min) is “up to 1.6 fold”.
For the molecule `[Cl-].[Cl-].[Mg+2]` [MgCl2], the “Relative activity (%)” value in data set [1] (0.5 mM metal ion/chemical) is recorded as 94 (±2.80) %; in data set [1] (1.0 mM metal ion/chemical), 107 (±0.80) %; in data set [1] (2.5 mM metal ion/chemical) it was 100 (±3.55) %. Further, the “Effect on the enzymatic activity” value in data set [1] is “no significant effect”.
Taken in the same sequence, the figures for `O=C(O)CN(CCN(CC(=O)O)CC(=O)O)CC(=O)O` [EDTA, ethylenediamine tetraacetic acid, reference compound] were 95 (±4.75) %, 95 (±2.02) %, 91 (±4.35) % and “no significant effect”.
Taken in the same sequence, the figures for `[Cl-].[Na+]` [NaCl] were 100 (±0.30) %, 109 (±5.33) %, 101 (±2.25) % and “no significant effect”.
With `O=S(=O)([O-])[O-].[Cu+2]` [CuSO4], the figures for the “Relative activity (%)” value in data set [1] (0.5 mM metal ion/chemical), in data set [1] (1.0 mM metal ion/chemical) and in data set [1] (2.5 mM metal ion/chemical) were 103 (±0.25) %, 97 (±1.45) % and 74%, respectively.
For the molecule `[Ca+2].[Cl-].[Cl-]` [CaCl2], the figures for the “Relative activity (%)” value in data set [1] (0.5 mM metal ion/chemical), in data set [1] (1.0 mM metal ion/chemical) and in data set [1] (2.5 mM metal ion/chemical) were 96 (±1.80) %, 110 (±6.85) % and 103 (±0.90) %, respectively. Also, the “Effect on the enzymatic activity” value in data set [1] is given as “no significant effect”.
Taken in the same sequence, the figures for `[Cl-].[K+]` [KCl] were 103 (±1.20) %, 109 (±6.41) %, 104 (±3.45) % and “no significant effect”.
Turning to `O=S(=O)([O-])[O-].[Mn+2]` [MnSO4], the “Relative activity (%)” value in data set [1] (0.5 mM metal ion/chemical) is recorded as 146 (±1.95) %; in data set [1] (1.0 mM metal ion/chemical), 156 (±0.70) %; in data set [1] (2.5 mM metal ion/chemical), 156 (±1.90) %.
Take `[Cl][Mn][Cl]` [MnCl2]: the results for the “Relative activity (%)” value in data set [1] (0.5 mM metal ion/chemical), in data set [1] (1.0 mM metal ion/chemical) and in data set [1] (2.5 mM metal ion/chemical) were 125 (±1.40) %, 163 (±2.60) % and 155 (±3.00) %, respectively.

B1: GH16B β-agarase: Thermostable endolytic GH16 family β-agarase (SEQ ID NO: 1, 597 aa, 63.8 kDa) from Cellvibrio sp. KY-GH-1, expressed in E. coli (protein, listed as Cellvibrio sp.)
chain: MKKITSCIAAALLLSAPLASFAADWDSVPIPAAAGTGKTWQLQSISDEFNYTASPTVKPAEFNTRWNPSFINSWTGPGDSEFNAGHSYTSGGSLALQSSAKAGTNKIYTGIISSKETFTYPLYLEARVKHTGNTLANAVWMLSADSTQEIDAMESYGSDRAGQEWFDQRMHVSHHVFIRSPFQDYQPKDEGSWVVNPAGGTWRGAMHVYGVHWKDPWNLDYYIDGVKVRTVSGPAMIDPYNFTNGTGINKPLHIIIDVEHQDWRDVRPTAAELADTSKSIMFVDWIRVYKPVTSSATSSSNSVSSSSSSLSNSSSSSATTVIDFANYFDTGKSTASVAGDTYVGFNKSGSGNINYNTAGDWADYLVTLPSDGQYKIEVTTASPMTSGIGAKLSVDGIYVSTTSLAATGGWELYSASTLANNLSIGAGTHTVRIESTGTSAWQWNGDEIRVTKVGSAPVGSPTTPAPVAMIIQAESFSATGGVYDGFKTYSVNGVSAINYNQRGDWADYAVNVAADGSYTFNAYVSSPMSGAALEVSVDGVKVLTQAVPNNGSWDSFQKVSSASKIALTKGAHTIRVTSAGTTSSTWEWNADKFELIP
As to B1, in data set [2], the Vmax is reported as 542.0 U/mg and the kcat worked out at 576.3 s⁻¹. Besides, the Km in data set [2] (50 mM Tris-HCl, pH 7.0) turned out to be 14.40 mg/mL. Also, the “Agarose concentration completely hydrolysed into NA4/NA6” value in data set [3] (1.6 μg/mL enzyme, 1 mM MnCl2, 10 mM TCEP, 50 mM Tris-HCl, pH 7.5, 50° C., 14 hours, magnetic stirring) is “up to 9.0%”. Also, in data set [3] (AOS substrate), the “End products of hydrolysis” value is listed as “NA4/NA6 but also A5”. Besides, in data set [3] (agarose substrate), the “End products of hydrolysis” value was “NA4 and NA6”. For the same molecule, the “Agarose-degrading activity (bright clear zone around the colonies)” value in data set [4] is “highest”. Further, the “Optimum pH” value in data set [5] is listed as 7.0. Moreover, in data set [5] (0.4% agarose, 0.8 μg/mL enzyme, pH 7.0, 30 min), the “Optimal temperature (highest activity)” value was 50 °C. Besides, the Maximum activity retained result in data set [5] (over the range of 25 to 60° C.) was “more than 80%”. For the same molecule, the pH stability result in data set [5] (pH 4) was “rapidly became inactive”.
